The values below come from patent US20240270748A1 (Merck Patent GmbH, priority 2021, published 2024).

The subject of this test is YAP-TEAD interaction. Briefly: SK-HEP-1 reporter assay (8xTEAD responsive elements driving NanoLuc luciferase). The class given is cell-based. Conditions: Homo sapiens, SK-HEP1, SK-HEP-1 reporter assay. The method, then:
To identify inhibitors of YAP-TEAD interaction, 8×TEAD responsive elements driving the NanoLuc® luciferase gene were stably integrated into SK-HEP-1 cells (ECACC #: 91091816).
For the assay, cells were treated in duplicates with the test compounds in a 10-point dose, with the top concentration starting at 30 μM (final concentration in assay). After a 24 hour incubation at 37° C., 95% rH, and 5% CO2, a luciferase substrate/lysis reagent mix (NanoGlo™, Promega) was added to the cells, allowing the quantification of cellular luciferase activity.
Cell Media: The cells were cultured in the following media: MEM, +10% FBS, +1× GlutaMAX, +1 mM Sodium-Pyruvate, +100 μM Non-essential amino acids, +0.1 mg/ml Hygromycin. The media used for the assay was: MEM (w/o Phenol Red), +10% FBS, +1× GlutaMAX, +1 mM Sodium-Pyruvate, +100 μM Non-essential amino acids, +0.5% Pen/Strep
Reagents: The reagents used are listed below:
Cell culture: The cells were examined using an inverted microscope to check for health and cell density. To dissociate adherent cells, the monolayer of cells was washed once with pre-warmed PBS. After removing the PBS, 3 ml pre-warmed Accutase® was added to a F75 flask, dispersed evenly and the flask was allowed to sit in incubator for ˜4-5 minutes.
When a single cell suspension was obtained, 7 ml of prewarmed growth media was added and resuspended with the cells. The cell suspension was transferred to a sterile 15 ml conical centrifuge tube, and spun for 5 min at 300×g, RT. The supernatant was discarded and the pellet was resuspended in 10 ml of pre-warmed growth media.
The total cell count was determined, and 20 μl of the desired cell number was added to each well of a 384 well plate using a Multidrop Combi. The plates were then incubated for 24 hours at 37° C., 95% rH, and 5% C02.
Compound treatment: 24 hours after seeding, the cells were treated with compounds.
A 1:333 dilution of compounds, diluted in DMSO, was made to get a final concentration of 0.3% DMSO per well. To transfer the compounds to the assay plate, […] was shot from Labcyte low dead volume plates to the cell plates containing 20 μl media/well with the ECHO 555 liquid handling system.
After treatment, the cells were fed with 20 μl fresh pre-warmed assay media using a Multidrop combi.
The assay plates were then incubated for another 24 h at 37° C., 95% rH, and 5% CO2.
Luciferase readout: 24 h after treatment, the plates were taken out of the incubator and were allowed to equilibrate to RT. 30 μl of NanoGlo® reagent was added to the plates in the dark. Plates were shaken for 20 min on a Teleshake (˜1500 rpm) in the dark. The luminescence was then measured using an EnVision microplate reader. The IC50 values were generated using Genedata Screener®.
For orientation: Reporter assays use an easily measured gene product as a stand-in for the process of interest.

The mark [1] stands for this setting: n.d. = value not detectable below threshold given in parentheses, ND = not determinable within the entire range.

What is called IC50 is the concentration needed to halve the response being measured. In turn, `Cn1cc2c3cc(C(=O)N=S(C)(=O)CCN)ccc3n(-c3ccc(C(F)(F)F)cc3)c2n1` (stereo not shown) [Example C36, N-[(2-aminoethyl) (methyl)οxο-λ^6-sulfanylidene]-2-methyl-8-[4-(trifluoromethyl)phenyl]-2H,8H-pyrazolo[3,4-b]indole-5-carboxamide] gave an IC50 (class symbols) of 0.1 to 10 µM.

In turn, `Cn1cc2c3cc(C4CC(n5ccnn5)=NO4)ccc3n(-c3ccc(C(F)(F)F)cc3)c2n1` (stereo not shown) [Example C37, 1-(5-{2-methyl-8-[4-(trifluoromethyl)phenyl]-2H,8H-pyrazolo[3,4-b]indol-5-yl}-4,5-dihydro-1,2-oxazol-3-yl)-1H-1,2,3-triazole] came in with an IC50 (class symbols) above 10 µM.

Under “class symbols”, `Cn1cc2c3cc(C4CC(n5nccn5)=NO4)ccc3n(-c3ccc(C(F)(F)F)cc3)c2n1` (stereo not shown) [Example C38, 2-(5-{2-methyl-8-[4-(trifluoromethyl)phenyl]-2H,8H-pyrazolo[3,4-b]indol-5-yl}-4,5-dihydro-1,2-oxazol-3-yl)-2H-1,2,3-triazole] registered an IC50 above 10 µM.

`Cn1cc2c3cc(S(=O)(=O)O)ccc3n(-c3ccc(C(F)(F)F)cc3)c2n1` [Example C43, 2-methyl-8-[4-(trifluoromethyl)phenyl]-2H,8H-pyrazolo[3,4-b]indole-5-sulfonic acid]: the IC50 (class symbols) lay within 0.1 to 10 µM.

With `Cn1nnc2c3cc(S(=O)(=O)O)ccc3n(-c3ccc(C(F)(F)F)cc3)c21` [Example C44, 3-methyl-4-[4-(trifluoromethyl)phenyl]-3H,4H-[1,2,3]triazolo[4,5-b]indole-7-sulfonic acid], the half-maximal inhibitory concentration (IC50) under setting [1] was above 30 µM.

`Cc1snc2c1c1cc(C(=O)N3CC[C@H](O)C3)ccc1n2-c1ccc(C(F)(F)F)cc1` [Example C49, (3S)-1-{3-methyl-8-[4-(trifluoromethyl)phenyl]-8H-[1,2]thiazolo [3,4-b]indole-5-carbonyl}pyrrolidin-3-ol] came in with an IC50 (class symbols) of 0.1 to 10 µM.

`Cc1snc2c1c1cc(C(=O)N3CC[C@@H](O)C3)ccc1n2-c1ccc(C(F)(F)F)cc1` [Example C54, (3R)-1-{3-methyl-8-[4-(trifluoro-methyl)phenyl]-8H-[1,2]thiazolo[3,4-b]indole-5-carbonyl}pyrrolidin-3-ol] displayed an IC50 (class symbols) of 0.1 to 10 µM.

As for `Cc1snc2c1c1cc(C(=O)NC[C@H](O)C(F)(F)F)ccc1n2-c1ccc(C(F)(F)F)cc1` [Example C55, 3-methyl-N-[(2S)-3,3,3-trifluoro-2-hydroxypropyl]-8-[4-(trifluoro-methyl)phenyl]-8H-[1,2]thiazolo[3,4-b]indole-5-carboxamide], the IC50 (class symbols) was in the range of 0.1 to 10 µM.

In turn, `CNCCC(C)NC(=O)c1ccc2c(c1)c1cn(C)nc1n2-c1ccc(C(F)(F)F)cc1` (stereo not shown) [Example C58, 2-methyl-N-[4-(methylamino)butan-2-yl]-8-[4-(trifluoromethyl)phenyl]-2H,8H-pyrazolo[3,4-b]indole-5-carboxamide] had a half-maximal inhibitory concentration (IC50) (class symbols) of 0.1 to 10 µM.

`Cn1cc2c3cc(C(=O)N4CC(C#N)C4)ccc3n(-c3ccc(C(F)(F)F)cc3)c2n1` [Example C59, 1-{2-methyl-8-[4-(trifluoromethyl)phenyl]-2H,8H-pyrazolo[3,4-b]indole-5-carbonyl}azetidine-3-carbonitrile] returned an IC50 (class symbols) of 0.1 to 10 µM.

For `Cn1cc2c3cc(C(=O)N4CC(CF)C4)ccc3n(-c3ccc(C(F)(F)F)cc3)c2n1` [Example C60, 3-(fluoromethyl)-1-{2-methyl-8-[4-(trifluoromethyl)phenyl]-2H,8H-pyrazolo[3,4-b]indole-5-carbonyl}azetidine], where the note is “class symbols”, the IC50 is 0.1 to 10 µM.

Take `Cc1snc2c1c1cc(C(=O)N[C@H](CO)c3ccccn3)ccc1n2-c1ccc(C(F)(F)F)cc1` [Example C69, N-[(1S)-2-hydroxy-1-(pyridin-2-yl)ethyl]-3-methyl-8-[4-(trifluoromethyl)phenyl]-8H-[1,2]thiazolo[3,4-b]indole-5-carboxamide]: for the setting “class symbols”, the IC50 was 0.1 to 10 µM.

Under “class symbols”, `CCCNS(=O)(=O)c1ccc2c(c1)c1cn(C)nc1n2-c1ccc(C(F)(F)F)cc1` [Example C71, 2-methyl-N-propyl-8-[4-(trifluoromethyl)phenyl]-2H,8H-pyrazolo[3,4-b]indole-5-sulfonamide] showed an IC50 of 0.1 to 10 µM.

The molecule `Cc1snc2c1c1cc(C(=O)NCc3cnccn3)ccc1n2-c1ccc(C(F)(F)F)cc1` [Example C78, 3-methyl-N-[(pyrazin-2-yl)methyl]-8-[4-(trifluoromethyl)phenyl]-8H-[1,2]thiazolo[3,4-b]indole-5-carboxamide] registered an IC50 (class symbols) of 0.01 to 0.1 µM.

Turning to `Cc1snc2c1c1cc(C(=O)NCc3nccn3C)ccc1n2-c1ccc(C(F)(F)F)cc1` [Example C79, 3-methyl-N-[(1-methyl-1H-imidazol-2-yl)methyl]-8-[4-(trifluoromethyl)phenyl]-8H-[1,2]thiazolo[3,4-b]indole-5-carboxamide], the IC50 (class symbols) was in the range of 0.1 to 10 µM.

Regarding `Cc1snc2c1c1cc(C(=O)NC3(CO)CCC3)ccc1n2-c1ccc(C(F)(F)F)cc1` [Example C82, N-[1-(hydroxymethyl)cyclobutyl]-3-methyl-8-[4-(trifluoromethyl)phenyl]-8H-[1,2]thiazolo[3,4-b]indole-5-carboxamide], the IC50 (class symbols) was in the range of 0.1 to 10 µM.

`Cn1cc2c3cc(S(=O)(=O)N4CCCC4)ccc3n(-c3ccc(C(F)(F)F)cc3)c2n1` [Example C84, 1-({2-methyl-8-[4-(trifluoromethyl)phenyl]-2H,8H-pyrazolo[3,4-b]indol-5-yl}sulfonyl)pyrrolidine]: under setting [1], the IC50 is above 10 µM.

As to `Cc1snc2c1c1cc(C(=O)N[C@@H](CO)C(C)C)ccc1n2-c1ccc(C(F)(F)F)cc1` [Example C92, N-[(2R)-1-hydroxy-3-methylbutan-2-yl]-3-methyl-8-[4-(trifluoromethyl)phenyl]-8H-[1,2]thiazolo[3,4-b]indole-5-carboxamide], the IC50 (class symbols) lay within 0.01 to 0.1 µM.

For `Cc1snc2c1c1cc(C(=O)N[C@H](CO)C3CCC3)ccc1n2-c1ccc(C(F)(F)F)cc1` [Example C100, N-[(1S)-1-cyclobutyl-2-hydroxyethyl]-3-methyl-8-[4-(trifluoromethyl)phenyl]-8H-[1,2]thiazolo[3,4-b]indole-5-carboxamide], the IC50 (class symbols) was 0.1 to 10 µM.

Consider `C[C@@H](NC(=O)c1ccc2c(c1)c1cn(C)nc1n2-c1ccc(C(F)(F)F)cc1)c1ccccn1` [Example C107, 2-methyl-N-[(1R)-1-(pyridin-2-yl)ethyl]-8-[4-(trifluoromethyl)phenyl]-2H,8H-pyrazolo[3,4-b]indole-5-carboxamide], for which the half-maximal inhibitory concentration (IC50) (class symbols) was in the range of 0.1 to 10 µM.

With `Cn1cc2c3nc(C(=O)N=S(C)(=O)CCO)ccc3n(-c3ccc(C(F)(F)F)cc3)c2n1` (stereo not shown) [Example C109, N-[(2-hydroxyethyl)(methyl)oxo-λ^6-sulfanylidene]-4-methyl-7-[4-(trifluoromethyl)phenyl]-4,5,7,12-tetraazatricyclo [6.4.0.0^2,6]dodeca-1(8),2,5,9,11-pentaene-11-carboxamide], under setting [1], the half-inhibitory concentration (IC50) was above 30 µM.

`COCCNC(=O)c1ccc2c(n1)c1cn(C)nc1n2-c1ccc(C(F)(F)F)cc1` [Example C112, N-(2-methoxyethyl)-4-methyl-7-[4-(trifluoromethyl)phenyl]-4,5,7,12-tetraazatricyclo [6.4.0.0^2,6]dodeca-1(8),2,5,9,11-pentaene-11-carboxamide] had a 50% inhibitory concentration (IC50) (class symbols) of 0.1 to 10 µM.

As to `Cn1cc2c3nc(C(=O)NCCO)ccc3n(-c3ccc(C(F)(F)F)cc3)c2n1` [Example C113, N-(2-hydroxyethyl)-4-methyl-7-[4-(trifluoromethyl)phenyl]-4,5,7,12-tetraazatricyclo [6.4.0.0^2,6]dodeca-1(8),2,5,9,11-pentaene-11-carboxamide], the IC50 (class symbols) lay within 0.1 to 10 µM.

In turn, `C[C@@H](NC(=O)c1ccc2c(n1)c1cn(C)nc1n2-c1ccc(C(F)(F)F)cc1)c1ccccn1` [Example C114, 4-methyl-N-[(1R)-1-(pyridin-2-yl)ethyl]-7-[4-(trifluoromethyl)phenyl]-4,5,7,12-tetraazatricyclo[6.4.0.0^2,6]dodeca-1(8),2,5,9,11-pentaene-11-carboxamide] gave an IC50 (class symbols) of 0.1 to 10 µM.

For `Cn1cc2c3nc(CO)ccc3n(-c3ccc(C(F)(F)F)cc3)c2n1` [Example C116, {4-methyl-7-[4-(trifluoromethyl)phenyl]-4,5,7,12-tetraazatricyclo [6.4.0.0^2,6]dodeca-1(8),2,5,9,11-pentaen-11-yl}methanol], under “class symbols”, the concentration for half-maximal inhibition (IC50) was 0.1 to 10 µM.
